Reference: patent US9957209B2, “Use of quinone methides as antipolymerants for vinylic monomers” (Ecolab USA Inc., priority 2015, dated 2018)

Experiment: Static antipolymerant screening: polystyrene formed in heated, inhibitor-free styrene (ASTM D2121 methanol precipitation, absorbance at 420 nm)
Details: 0.33 mmolal antipolymerant in styrene, 122° C., anaerobic
Protocol: The antipolymerant performance of the isolated cinnamyl quinone methide, 2,6-di-tert-butyl-4-(3-phenylallylidene)cyclohexa-2,5-dienone (7-Cinn-QM), was determined using the static method whereby a 0.31 mM (0.33 mmolal) solution of the retarder was prepared in inhibitor-free styrene. To start with, 4-tert-butylcatechol (TBC) was removed by eluting styrene through alumina. To prepare a 0.31 mM solution of 7-Cinn-QM, 0.0264 g were dissolved in freshly de-inhibited styrene to give a solution of 250 grams. Into twenty-four Ace Glass #15 threaded pressure tubes equipped with PTFE screw caps and fluoroelastomer (FETFE) O-rings, 9 mL of the solution were charged into each tube. To purge as much oxygen out of the solutions as possible, each solution was sparged with nitrogen for 2 minutes. Immediately after sparging each solution, the tube was sealed and the solution kept under a nitrogen gas overhead. […] After 30 minutes, and every 15 minutes thereafter, four tubes were retrieved from the block and the polymerization reaction quenched by cooling in an ice bath. The cooled polymer solutions were immediately diluted with toluene.
To measure the amount of polymer formed, methanol was used to precipitate the polymer in accordance with the ASTM D2121 method. The absorbance of the polymer-methanol admixtures were measured at 420 nm. Using a calibration curve, the polymer concentrations in each of the tubes was measured and the four data points for each time were averaged.
For comparative purpose, 0.0243 g of 7-Ph-QM were dissolved in 350 g of inhibitor-free styrene after which the antipolymerant performance was tested according to the procedure in Example 3.
Similarly, a styrene solution comprising 0.155 mmolal of 7-Ph-QM and 0.155 mmolal of 7-Cinn-QM was used to screen the performance of the combination in accordance with the procedure in Example 3.

In the case of `CC(C)(C)C1=CC(=CC=Cc2ccccc2)C=C(C(C)(C)C)C1=O` [7-Cinn-QM, 2,6-di-tert-butyl-4-(3-phenylallylidene)cyclohexa-2,5-dienone], the “Polystyrene (%)” value (Time 30) is reported as 0.05%, the “Polystyrene (%)” value (Time 45) is reported as 0.20% and the “Polystyrene (%)” value (Time 60) is reported as 0.41%. For the same compound, the “Polystyrene (%)” value (Time 75) was 0.88%, the “Polystyrene (%)” value (Time 90) was 1.54% and the “Polystyrene (%)” value (Time 105) was 3.39%. The “Polystyrene (%)” value (Time 120) was 5.13% and the “Polystyrene (%)” value (Time 135) was 7.07%.
For 7-Phenyl Quinone Methide [7-Ph-QM], the “Polystyrene (%)” value (Time 30) was 0.13%, the “Polystyrene (%)” value (Time 45) was 0.49% and the “Polystyrene (%)” value (Time 60) was 0.89%. For the same compound, the “Polystyrene (%)” value (Time 75) was 1.08%, the “Polystyrene (%)” value (Time 90) was 1.37% and the “Polystyrene (%)” value (Time 105) was 1.56%. The “Polystyrene (%)” value (Time 120) was 2.4% and the “Polystyrene (%)” value (Time 135) was 3.4%.
